From US20240083903A1, “ARYL ETHER COMPOUNDS AS TEAD MODULATORS” (Merck Sharp& Dohme LLC, priority 2021, published 2024)

Tested on: TEAD Reporter-MCF7 cell line
Assay: YAP/TEAD cellular activity assay: inhibition of TEAD-Luc activity in TEAD Reporter-MCF7 cell line
Assay type: cell-based, human
Details: Homo sapiens, TEAD Reporter-MCF7 cells, 24 hours incubation with compound, luciferase readout
Method in brief: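 MCF7 cells stably carrying a TEAD-responsive firefly luciferase reporter were seeded at 10,000 cells/well, grown 20-24 h, then exposed to compounds for 24 h at 37° C. Luciferase read by ONE-Glo EX luminescence; percent inhibition and EC50 derived.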

`CNS(=O)(=O)c1ccc(Oc2ccc(C(F)(F)F)cc2)c(-n2cc3c(n2)CN(C)C3)c1` [6-1, N-Methyl-3-(5-methyl-5,6-dihydropyrrolo [3,4-c]pyrazol-2(4H)-yl)-4-(4-(trifluoromethyl)phenoxy)benzenesulfonamide] showed an EC50 (MCF7, 24 h) of 6690 nM.
`CNS(=O)(=O)c1ccc(Oc2ccc(C(F)(F)F)cc2)c(-n2cc3c(n2)CCC3)c1` [6-2, 3-(5,6-dihydrocyclopenta[c]pyrazol-2(4H)-yl)-N-methyl-4-[4-(trifluoromethyl)phenoxy]benzene-1-sulfonamide] gave an EC50 (MCF7, 24 h) of 68.5 nM.
`CC(C)NS(=O)(=O)c1ccc(Oc2ccc(C(F)(F)F)cc2)c(-c2cn3c(n2)CCC3)c1` [7-1, 3-(6,7-dihydro-5H-pyrrolo[1,2-a]imidazol-2-yl)-N-(propan-2-yl)-4-[4-(trifluoromethyl)phenoxy]benzene-1-sulfonamide] was tested, and the EC50 was 138 nM.
`CCNS(=O)(=O)c1ccc(Oc2ccc(C(F)(F)F)cc2)c(-c2cn3c(n2)CCC3)c1` [7-2, 3-(6,7-dihydro-5H-pyrrolo[1,2-a]imidazol-2-yl)-N-ethyl-4-[4-(trifluoromethyl)phenoxy]benzene-1-sulfonamide] gave an EC50 (MCF7, 24 h) of 35.2 nM.
`O=S(=O)(NC1CC1)c1ccc(Oc2ccc(C(F)(F)F)cc2)c(-c2cn3c(n2)CCC3)c1` [7-3, N-cyclopropyl-3-(6,7-dihydro-5H-pyrrolo[1,2-a]imidazol-2-yl)-4-(4-(trifluoromethyl)phenoxy)benzenesulfonamide] showed an EC50 (MCF7, 24 h) of 17.8 nM.
`CNS(=O)(=O)c1ccc(Oc2ccc(Cl)cc2)c(-c2cc3n(n2)CCC3)c1` [8-1, 4-(4-Chlorophenoxy)-3-(5,6-dihydro-4H-pyrrolo[1,2-b]pyrazol-2-yl)-N-methylbenzene-1-sulfonamide] showed an EC50 of 10.4 nM.
Compound `CNS(=O)(=O)c1ccc(Oc2ccc(F)cc2)c(-c2cc3n(n2)CCC3)c1` [8-2, 3-(5,6-dihydro-4H-pyrrolo[1,2-b]pyrazol-2-yl)-4-(4-fluorophenoxy)-N-methylbenzene-1-sulfonamide] has an EC50 (MCF7, 24 h) of 21.5 nM.
For `CNS(=O)(=O)c1cnc(Oc2ccc(C(F)(F)F)cc2)c(-c2cc3n(n2)CCC3)c1` [8-3, 5-(5,6-dihydro-4H-pyrrolo[1,2-b]pyrazol-2-yl)-N-methyl-6-[4-(trifluoromethyl)phenoxy]pyridine-3-sulfonamide], the EC50 (MCF7, 24 h) was 1.3 nM.
For `CNS(=O)(=O)c1ccc(Oc2ccc(C(F)F)cc2)c(-c2cc3n(n2)CCC3)c1` [8-4, 4-[4-(difluoromethyl)phenoxy]-3-(5,6-dihydro-4H-pyrrolo[1,2-b]pyrazol-2-yl)-N-methylbenzene-1-sulfonamide], the EC50 (MCF7, 24 h) was 46.6 nM.
`CNS(=O)(=O)c1ccc(Oc2ccc(C(F)(F)F)cc2)c(-c2cn3c(n2)C(O)CC3)c1` (stereo not shown) [9-1, 3-(7-Hydroxy-6,7-dihydro-5H-pyrrolo[1,2-a]imidazol-2-yl)-N-methyl-4-(4-(trifluoromethyl)phenoxy)benzenesulfonamide] gave an EC50 (MCF7, 24 h) of 907 nM.
`CNS(=O)(=O)c1ccc(Oc2ccc(C(F)(F)F)cc2)c(-c2cn3c(n2)C(C)(O)CC3)c1` (stereo not shown) [9-2, 3-(7-Hydroxy-7-methyl-6,7-dihydro-5H-pyrrolo[1,2-a]imidazol-2-yl)-N-methyl-4-(4-(trifluoromethyl)phenoxy)benzenesulfonamide] gave an EC50 (MCF7, 24 h) of 304 nM.
In the case of `CNS(=O)(=O)c1ccc(Oc2ccc(C(F)(F)F)cn2)c(-c2cn3c(n2)CCC3)c1` [10-1, 3-(6,7-Dihydro-5H-pyrrolo[1,2-a]imidazol-2-yl)-N-methyl-4-((5-(trifluoromethyl)pyridin-2-yl)oxy)benzenesulfonamide], the EC50 (MCF7, 24 h) is reported as 49.8 nM.
For `CNS(=O)(=O)c1cnc(Oc2ccc(C(F)(F)F)cc2)c(-c2cn3c(n2)CCC3)c1` [11-1, 5-(6,7-dihydro-5H-pyrrolo[1,2-a]imidazol-2-yl)-N-methyl-6-[4-(trifluoromethyl)phenoxy]pyridine-3-sulfonamide], the EC50 (MCF7, 24 h) was 8.7 nM.
